Experimental data taken from ChEMBL document CHEMBL3864122, “Antibacterial sulfur-containing platensimycin and platencin congeners from Streptomyces platensis SB12029” (2016).

Assays:
Micrococcus luteus = assay: Antibacterial activity against Micrococcus luteus ATCC 9431 measured after 18 hrs by broth dilution method; assay type: functional; conditions: ATCC 9431, 18 h
Staphylococcus aureus = assay: Antibacterial activity against methicillin-sensitive Staphylococcus aureus ATCC 25923 measured after 18 hrs by broth dilution method; assay type: functional; conditions: ATCC 25923, 18 h

| SMILES | MIC (Micrococcus luteus) | MIC (Staphylococcus aureus) |
| --- | --- | --- |
| C[C@]12C[C@@]34C=CC(=O)[C@@](C)(CCC(=O)Nc5c(O)ccc(C(=O)S[C@H]6CC(=O)[C@@](C)(CCC(=O)Nc7c(O)ccc(C(=O)O)c7O)[C@@H]7[C@@H]8C[C@@H]9C[C@]67C[C@]9(C)O8)c5O)[C@@H]3[C@H](C[C@@H]1C4)O2 | 0.28 µM | 0.56 µM |
| C[C@]12C[C@@]34C=CC(=O)[C@@](C)(CCC(=O)Nc5c(O)ccc(C(=O)O)c5O)[C@@H]3[C@H](C[C@@H]1C4)O2 | 1.13 µM | 1.13 µM |
| COc1ccc(C(=O)SC)c(OC)c1NC(=O)CC[C@]1(C)C(=O)C=C[C@]23C[C@H]4C[C@H](O[C@@]4(C)C2)[C@H]31 | 64 µg/mL | > 64 µg/mL |
